In patent US5707615A, “Method of treating HIV infections with anti-viral formulations” (Merrell Pharmaceuticals Inc., priority 1997, dated 1998):

Columns and labels:
[1] = test system: HIV strain RF; test: Ability to prevent virus-induced cell death using MT4 cells and strain RF (Example III); format: cell-based; settings: MT4 cells, 7 days, MTT, 10080 min
Method: (§1) Various oligomers were dissolved in RPMI and were then assayed for anti-HIV activity by making doubling dilutions of the solutions across a 96 well microtitre plate. To each well were then added 5×10^4 cells and 100 TCID50 of virus and the plates incubated at 37° C. for 7 days. MTT was added to each well and the plates incubated for a further 2 hours. The blue formazan crystals were dissolved using acidic isopropanol, and the absorbance measured at 540 nm.

[2] = test system: MT4 cells; test: Toxicity to MT4 cells (TD50, Table IV, MTT); format: cell-based; settings: MT4 cells, 7 days, MTT
Method: as §1

[3] = test system: HIV-I (GB8); test: Pretreatment of JM cells and block of HIV-I (GB8) infection (Example IV); settings: pretreated overnight at 20 μg/mL
Method: JM cells were pretreated overnight at 37° C. with different compounds at 20 μg/mL or left untreated. The cells were washed 3 times in RPMI medium and then infected with HIV-I (GB8) for 2 hours at room temperature. The cells were again washed 3 times in RPMI medium and resuspended in fresh medium prior to being distributed into duplicate wells and incubated at 37° C. After 2 days syncytia were scored and the cell free supernatant fluid harvested and assayed for P24 viral core antigen using the Coulter™ HIV antigen assay.

[4] = test system: GB8 virus in JM cells; test: Virus infection of JM cells with GB8 in the presence of test compounds: syncytia and P24 (Example II); settings: Table II; for SYNCYTIA % / P24 %: % of control; for SYNCYTIA %: 2880 min; for P24 %: 5760 min
Method: Virus infection of JM cells was carried out in the presence of different concentrations of test compounds. JM cells (1×10^5) and 50-100 syncytial forming units of virus (GB8) were added to duplicate wells of a tissue culture plate containing 1 mL volumes of growth medium with or without drug. The plate was incubated for 2 days at 37° C. and then scored for the presence of syncytia. At the same time the cells were washed and the growth medium replaced. After a further two days incubation, the cell free supernatant fluids were harvested and assayed for levels of P24 viral core antigen using the Coulter™ HIV Antigen assay.

poly[imino(2,5-disulfo-1,4-phenylene)iminocarbonyl], alpha-{[(4-methylphenyl)amino]carbonyl}-omega-[(4-methylphenyl)amino]- [Example 3A]
ED50 [1]: > 10 µg/mL
TD50 [2]: > 100 µg/mL
P24 [3]: 26880 pg/mL
MEAN SYNCYTIA ([3]; 2 days): 153
P24 % ([3]; % of control, 2880 min): 95%
SYNCYTIA % ([3]; % of control, 2880 min): 129%
SYNCYTIA (2 DAYS) MEAN ([4]; 0.6 μg/mL): 51
SYNCYTIA % ([4]; 0.6 μg/mL): 120%
P24 ([4]; 1.25 μg/mL): 4.3 × 10^5 units/mL
SYNCYTIA (2 DAYS) MEAN ([4]; 1.25 μg/mL): 20
SYNCYTIA % ([4]; 1.25 μg/mL): 48%
P24 % ([4]; 1.25 μg/mL): 100%
P24 ([4]; 2.5 μg/mL): 2.5 × 10^5 units/mL
SYNCYTIA (2 DAYS) MEAN ([4]; 2.5 μg/mL): 38
SYNCYTIA % ([4]; 2.5 μg/mL): 90%
P24 % ([4]; 2.5 μg/mL): 69%
P24 ([4]; 5 μg/mL): 3.6 × 10^5 units/mL
SYNCYTIA (2 DAYS) MEAN ([4]; 5 μg/mL): 15
SYNCYTIA % ([4]; 5 μg/mL): 36%
P24 % ([4]; 5 μg/mL): 100%
P24 ([4]; 10 μg/mL): 4.1 × 10^4 units/mL
SYNCYTIA (2 DAYS) MEAN ([4]; 10 μg/mL): 3
SYNCYTIA % ([4]; 10 μg/mL): 7%
P24 % ([4]; 10 μg/mL): 11%
SYNCYTIA (2 DAYS) MEAN ([4]; 20 μg/mL): 5
SYNCYTIA % ([4]; 20 μg/mL): 12%
